Reference: patent US11980209B2, “Consumables” (GIVAUDAN SA, priority 2007, dated 2024)

System: perceived sweet taste (sweet sensitive panelists)
Test: Ranking test with R-index, isointensity of 100 ppm trilobatin in 7% sucrose solution (Example 2a)
Format: in vivo, human
Settings: for R-index: critical values 35.39-64.61%
Method: The sensory evaluation was conducted using a ranking method. Samples at ambient temperature were randomly presented in 15 ml blind aliquots (unidentifiable by panelists). Panels consisted of 15 sweet sensitive subjects and samples were presented in 2 replications over 1 session. After tasting each sample, the mouth was rinsed thoroughly with water at ambient temperature prior to tasting the next sample. Panelists were presented with 7%, 8%, 9%, 10% and 11% sucrose solutions in water and a sixth sample of 100 ppm trilobatin in 7% sucrose. Subjects were asked to rank the samples from low to high with respect to perceived sweet taste. R-indices were calculated for 100 ppm trilobatin in 7% sucrose versus either 7%, 8%, 9%, 10% or 11% sucrose.

[1] = 100 ppm trilobatin in 7% sucrose

## O=C(CCc1ccc(O)cc1)c1c(O)cc(O[C@@H]2O[C@H](CO)[C@@H](O)[C@H](O)[C@H]2O)cc1O [trilobatin, 1-[4-(beta-D-glucopyranosyloxy)-2,6-dihydroxyphenyl]-3-(4-hydroxyphenyl)-1-propanone]
[1]
  added sucrose sweetness intensity: 1 ° Brix
  expected isointensity to sucrose assuming a merely additive effect: 7.5 % sucrose
  isointensity to sucrose: 8 % sucrose
100 ppm trilobatin in 7% sucrose vs 7% sucrose
  R-index: 79%
100 ppm trilobatin in 7% sucrose vs 8% sucrose
  R-index: 38%
100 ppm trilobatin in 7% sucrose vs 9% sucrose
  R-index: 12%
100 ppm trilobatin in 7% sucrose vs 10% sucrose
  R-index: 1%
100 ppm trilobatin in 7% sucrose vs 11% sucrose
  R-index: 0%
Vs 7% sucrose solution
  sample sweetness (7% sucrose + 100 ppm trilobatin): Sweeter
Vs 8% sucrose solution
  sample sweetness (7% sucrose + 100 ppm trilobatin): Isosweet
Vs 9% sucrose solution
  sample sweetness (7% sucrose + 100 ppm trilobatin): Less sweet
Vs 10% sucrose solution
  sample sweetness (7% sucrose + 100 ppm trilobatin): Less sweet
Vs 11% sucrose solution
  sample sweetness (7% sucrose + 100 ppm trilobatin): Less sweet
